Experimental data: US20160214926A1, “DIPHENYLOXYALKYLAMINE DERIVATIVES AND ARYLOXYALKYLAMINE DERIVATIVES, PHARMACEUTICAL COMPOSITION, USE OF SAID PHARMACEUTICAL COMPOSITION FOR TREATING, PREVENTING OR INHIBITING CHRONIC PULMONARY INFLAMMATORY DISEASES AND METHOD FOR TREATING OR PREVENTING SUCH DISEASES” (FUNDACAO OSWALDO CRUZ, priority 2013, published 2016)
Where two headings read alike, the source gives them in different places.

Legend:
[1] = system: sodium current in GH3 cells; test: Inhibition of sodium current in GH3 cells, patch clamp; assay type: cell-based, rat
A/J mice [2] = test: Ovalbumin asthma model: airway hyperreactivity, leukocyte infiltration, cytokines (nebulization); assay type: in vivo
Description: Male A/J mice (18-20 g), coming from the Laboratory Animal Breeding Center of Oswaldo Cruz Foundation, were used in the experiments. The animals were previously sensitized with a mixture of ovalbumin (OVA) (50 μg) (Grade V; Sigma, St. Louis, Mo., USA) and aluminum hydroxide (5 mg) administered subcutaneously on day 0 with boost on day 14 (equal suspension administered intraperitoneally). Nasal instillations of OVA (25 μg/25 μl in sterile 0.9% NaCl) were administered on days 14, 21, 28 and 35, with the hyperresponsiveness analysis performed 24 hours after the last challenge. […] That is, the treatments took place after the installation of asthma framework, reflecting a therapeutic action of the respective compounds analyzed.
The effect of the treatments on bronchial hyperreactivity was investigated by measuring the resistance changes and pulmonary elastance, using invasive barometric plethysmography whole-body system (Buxco, USA), as previously described (Olsen et al., 2012).

tracheal rings = test: Anaphylactic (ovalbumin-induced) contraction of tracheal rings from sensitized rats; design: species or system Wistar rats
Description: In this study, Wistar rats of both sexes were used, weighing between 200 and 250 g, coming from the Laboratory Animal Breeding Center of Fundacdo Oswaldo Cruz. As described previously (da Costa et al., 2007), the animals were sensitized by injection into the dorsal subcutaneous tissue with mixture containing 50 μg of ovalbumin and 5 mg of aluminum hydroxide on days 0 and 7. On the 14th day after the first sensitization, the animals were sacrificed for the removal of the trachea. After a stabilization period of 30 minutes, the tracheal rings were contracted initially with carbachol (2.5 μM) for testing the feasibility and reproducibility of the responses of the preparation.
The tracheal rings were exposed to increasing concentrations of JME-173 (3-30 μM), or carrier (0.9% NaCl) for 30 minutes before the triggering of the contractile response triggered by ovalbumin (100 μg/ml). Salmeterol (30 μM) was used as reference treatment. The responses were expressed as mean±Standard Error of the Mean of at least 5 tracheal segments. All results were expressed as percentage of the contraction produced by 2.5 μM of carbachol.

[3] = system: rat tracheas pre-contracted with carbachol; test: Relaxation of rat trachea pre-contracted with carbachol
Description: To assess the potential relaxing effect of the respiratory smooth muscle, rat tracheas were obtained and maintained in an isolated organ bath, as previously described (Coelho et al., 2008). The tracheal segments were then pre-contracted with carbachol at the concentration of 2.5 μM and subjected to increasing concentrations of the tested compounds. All results were expressed as percentage of the contraction produced by carbachol (Coelho et al., 2008).

A/J mice [4] = test: Ovalbumin asthma model: hyperreactivity, mucus production, peribronchial fibrosis (nebulization); assay type: in vivo
Description: Male A/J mice (18-20 g), coming from the Laboratory Animal Breeding Center of Oswaldo Cruz Foundation, were used in the experiments. The sensitization procedures, antigen challenge and treatment used in this study followed the experimental protocol shown in FIG. 6. Histological techniques were used for the quantification of mucus and peribronchial fibrosis, following previously reported and validated experimental protocols (Serra et al., 2012).

rat tracheal rings = test: Inhibition of carbachol-induced contraction of rat tracheal rings (pretreatment); details: for IC50 / Emax: carbachol 10 μM, pretreated 10 minutes; for Emax: mean ± SEM, read-out: EMAX maximum effect of inhibition of carbachol-induced contraction
Description: In this study, Wistar rats of both sexes were used, weighing between 200 and 250 g, coming from the Laboratory Animal Breeding Center of Fundacdo Oswaldo Cruz. As previously described (Coelho et al., 2008), the animals were sacrificed by exposure to air atmosphere enriched with CO2, Then, the anterior cervical region was opened so that the trachea could be located and removed. It was then transferred to a Petri dish containing Krebs solution with the following composition (mM): NaCl (118), KCl (4.8), CaCl2 (2.5), MgSO4 (1.2), KH2PO4 (1.2), NaHCO3 (24), and glucose (11). The total segment was divided into fragments of about 3 to 4 rings, which were kept in another Petri dish containing Krebs solution. Each fragment was mounted vertically on a 10 ml cuvette with Krebs solution maintained at 37° C. and aerated with carbogen mixture (95% O2 and 5% CO2). The lower rod is fixed to the cuvette base and the top portion was attached to the isometric transducer for measuring the voltage variation of the fragment. The transducer was connected to a device which transforms the voltage variation in digital record. The fragments were subjected to a basal voltage of 1 g and were calibrated, so that the subsequent contractions could be expressed as a percentage of this 1 g voltage. The solutions were introduced inside the cuvettes with the aid of an automatic pipette. The end of the tip was always placed at the same height and position, without touching the muscle. The tracheal rings were initially contracted with 2.5 μM of carbachol. When the contractions reached the plateau, each segment was washed until the total relaxation of the smooth muscle. […] All results were expressed as percentage of the contraction produced by 2.5 μM of carbachol (Coelho et al., 2008).

[5] = system: mast cells of the RBL-2H3 line; test: Antigen-induced degranulation of sensitized mast cells (beta-hexosaminidase release); assay type: cell-based; details: Rattus norvegicus; for Emax: RBL-2H3, DNP-BSA, read-out: EMAX blocking of anaphylactic mast cell degranulation
Description: For this study, mast cells of the RBL-2H3 line were used, as previously reported (Beaven et al., 1987). […] The cells were then dissociated from the plate using trypsin, centrifuged at 1000 rpm for 5 minutes and distributed in 48-well plates at a density of 125,000 cells per well. The cells were sensitized with monoclonal DNP-specific […] (1 μg/mL) diluted in the same medium used for the cultivation and maintained in the oven for 20 hours. After this period, the cells were washed with Tyrode-gelatin and subjected to treatment with increasing concentrations of […]-209 or mexiletine for 60 minutes. Then, incubation was performed with DNP-BSA (10 ng/ml) for a further period of 60 minutes. After this period, 10 μL of supernatant were collected from each well and added to a 96-well plate. The cells were lysed with 200 μL of 0.1% Triton X-100 and 10 μL of the lysate of each plate were added to the 96-well plate. Then, 40 μL of substrate for the β-hexosaminidase enzyme were added to the samples. After 40 minutes of reaction, reaction stopping solution (0.2 M glycine) was added, generating a colorimetric response, which was measured by spectrophotometer (λ=405 nm).

[6] = trachea pre-contracted with carbachol 2.5 μM, mean±SEM

`NC1=N[C@H](O)[C@H]2[C@H]3O[C@]4(O)O[C@@H]([C@@H](O)[C@@]2(N1)[C@@H]4O)[C@]3(O)CO` [tetrodotoxin] was tested, and the IC50 ([1]; read-out: IC50 inhibition of sodium current) was 0.304 µM.

`Cc1cc(OCC(C)N)cc(C)c1Br.Cl` (centres unmarked) [JME-173] was tested, and the “IL-5 generation in lung tissue” value (A/J mice [2]; nebulization 2%) was “blocking”, the “IL-13 generation in lung tissue” value (A/J mice [2]; nebulization 2%) was “blocking” and the “eotaxin-2 generation in lung tissue” value (A/J mice [2]; nebulization 2%) was “blocking”. The “increased levels of anti-inflammatory cytokine IL-10” value (A/J mice [2]; nebulization 2%) was “without change”, the “airway hyperreactivity (lung resistance and elastance after methacholine)” value (A/J mice [2]; nebulization 2% for 30 minutes, OVA sensitized and challenged) was “abolished” and the EC50 (tracheal rings; Rattus norvegicus, ovalbumin 100 μg/ml, 30 minutes pretreatment, read-out: EC50 inhibition of anaphylactic contraction response) was 8.3 µM. For the same compound, the “blocking of anaphylactic contraction” value (tracheal rings; compound 30 μM) was “completely inhibited”, the EC50 ([3]; Rattus norvegicus, trachea pre-contracted with carbachol 2.5 μM, mean±SEM) was 3100 µM and the “times more potent as relaxation inducers than mexiletine” value ([3]; pre-contracted trachea) was 47 times. The maximum relaxation effect [3, 6] was 118%, the airway hyperreactivity (A/J mice [4]; nebulization 0.5%, 1% or 2% for 30 minutes) was “able to block” and the “inhibition of mucus production in airways” value (A/J mice [4]; nebulization 0.5%, PAS staining, quantitative analysis) was “about 70%”. For the same compound, the peribronchial fibrotic response (A/J mice [4]; nebulization, Gömöri trichrome, morphometry) was “clearly abolished”, the IC50 (rat tracheal rings; Rattus norvegicus) was 44.4 µM and the Emax (rat tracheal rings; Rattus norvegicus) was 97.9 ± 4.7%. It also gave an inhibition at 100 µM (rat tracheal rings; Rattus norvegicus, compound 100 μM, pre-treatment 10 minutes, read-out: inhibition of the muscarinic contraction) of ~98%, an IC50 (rat tracheal rings) of 44.3 µM and an Emax [5] of 97%.

`Cc1cccc(C)c1OCC(C)N` (centres unmarked) [Mexiletine, 2-(2-aminopropoxy)-1,3-dimethylbenzene, reference compound] was tested, and the maximum relaxation effect [3, 6] was 40%, the IC50 ([1]; GH3 cells, patch clamp, read-out: IC50 for blocking the sodium current) was ~278 µM and the IC50 (rat tracheal rings; Rattus norvegicus) was 466 µM. The Emax (rat tracheal rings; Rattus norvegicus) was 87.7 ± 4.9%, the “blocking of the muscarinic contraction” value (rat tracheal rings; compound 1000 μM) was “about 88%” and the IC50 ([5]; RBL-2H3, 1 h, RBL-2H3, DNP-BSA 10 ng/ml, 60 minutes treatment, read-out: IC50 blocking of anaphylactic mast cell degranulation) was 382 µM. It also gave an Emax [5] of 100%.
